# Entries after “also recorded” stand apart in the source; their conditions may differ.
# Experiments:
# [1] = test system: X. perforans strain GEV-485; assay: In vitro antibacterial activity at different time points (viable colony counts); assay type: cell-based
# Procedure: X. perforans strain GEV-485, a copper-resistant strain, was used in this study to evaluate the antibacterial activity of Hx. Working cultures of GEV-485 were retrieved from −80° C. storage vials containing bacterial suspensions in 30% glycerol (v/v). Bacterial cells were taken from the storage, streaked on nutrient agar (NA; Difco™ Sparks, MD) plates and incubated for 48 h at 28° C. and single colonies were picked and streaked on NA plates to ensure bacterial purity for further cultures. NA amended with copper (II) sulfate pentahydrate (CuSO4·5H2O) (Fisher Scientific-Hampton, NH) at 20 ppm, was used as copper tolerance selective agent. To prepare the bacterial inoculum, a single bacterial colony was streaked on NA and incubated for 24 h at 28° C. From those plates, loops of bacterial cells were collected and resuspended in SDW amended with 0.01 M MgSO4. The bacterial concentration was adjusted to ˜5.0×10^8 colony-forming units (CFU)/mL based on an optical density (OD) of 0.3 at 600 nm. The in vitro studies were conducted to determine the minimum inhibitory concentration (MIC), minimum bactericidal concentration (MBC), and the antibacterial activity at different time points.
# For the antibacterial activity study of Hx at different time points, the bacterial suspension was prepared as described above. […] After incubation, total viable colonies for each tube were counted. […]
# X. perforans GEV-485 = assay: Greenhouse in planta experiments, hexanoic acid soil drench, tomato bacterial spot ('Bonnie Best'); assay type: in vivo
# Procedure: Hexanoic acid (Hx) (>99%, Sigma Aldrich) was tested for its effect on the management of bacterial leaf spot of tomato. Stock solutions of Hx (1.0×10^4 mg/L) were prepared with sterile distilled water (SDW) and stored at 4° C. for further dilutions. Copper treatment suspensions were prepared using Kocide® 3000 (DuPont, Wilmington DE) that contains 30% metallic Cu in the form of copper hydroxide [Cu(OH)2]. For greenhouse experiments, Kocide® 3000 at the rate of 2.1 g/L and Penncozeb 75DF (United Phosphorus Inc., King of Prussia, PA) at the rate of 1.2 g/L in SDW were prepared.
# The plants were then moved to a growth chamber with temperature at 28° C., 12 h photoperiod and 80% relative humidity. Fifty mL of Hx at the tested rates were applied to 3-4 weeks old plants by soil drench, 4 and 2 days prior to bacterial inoculation to prime the plants and induce basal plant defense. Kocide® 3000 and a mixture of Kocide® 3000+Penncozeb® were sprayed on the tomato plants until runoff and allowed to air dry for 4 h before bacterial inoculation. Three plants were sprayed with SDW only, as a negative control. […] Disease severity and phytotoxicity were evaluated every other day using the Horsfall-Barratt scale (Horsfall and Barratt, 1945), starting from 3 days up to 20 days post inoculation. […]
# Xanthomonas perforans = assay: Field trials on hexanoic acid, bacterial spot of tomato (cv. Red bounty); assay type: in vivo; settings: for AUDPC / BS last rating of bacterial spot severity / YIELD: cv. Red bounty, ManKocide 2.1 mg/ml foliar spray, hexanoic acid 0.5 mg/ml drench (50 ml/plant)
# Procedure: Table 3 notes: Data from 2 repeated field experiments: BS1/BS2=bacterial disease severity in Exp. 1/Exp. 2; AUDPC1/AUDPC2=area under the disease progress curve in Exp. 1/Exp. 2; YIELD 1/YIELD 2=fruit yield (Kg/plant) in Exp/1/Exp.2; KOCIDER=Kocide® 3000 (Cu bactericide) at 1.75 lb/acre (=2.1 mg/mL) by sprays; MANKO=Mankocide® (Cu+mancozeb) at 1.75 lb/acre by foliar spray; HEXANO=hexanoic acid at 0.5 mg/mL (=500 mg/L) by root drench weekly for a total of 8 weeks.
# It is noted regarding the table above that: (1) data in this table were from 2 repeated field experiments, whereas those in FIG. 9 were from a greenhouse preliminary test; and (2) in the field experiments, Hx at 500 mg/L was weekly applied as soil drench for a total of 8 weeks. In the greenhouse test (FIG. 9), Hx at 512 mg/L was applied only one time as soil drench at 1, 3, or 7 days prior to the bacterial inoculation, respectively.
# Tomato seedlings were transplanted in fall for the first trial (trial 1) and spring for the second trial (trial 2). Treatments were started about two weeks after transplanting following weekly applications for a total of eight weeks. Tomato plants were inoculated with the pathogen Xanthomonas perforans (1-5×10^6 cfu/ml) the following day in the afternoon after the third treatment. Disease severity was rated weekly when bacterial spot symptoms were observed, and area under the disease progress curve (AUDPC) was calculated. Tomato fruit were harvested two to three times for each trial and graded according to the USDA standard. Total fruit yield in each treatment and the untreated control (CK) was subjected to statistical analysis using SAS (version 9.2, SAS Institute Inc., Cary, NC, USA). Disease severity of last rating and AUDPC from each trial were analyzed and presented.
# Hexanoic acid at 0.5 mg/ml was drenched (50 ml/plant) to the base of each plant. This chemical was evaluated in two independent trials. Tomato cultivar was ‘Red bounty’.
# [2] = 0.5 mg/ml applied as root drench (50 ml/plant)
# [3] = Experiment 1, Kocide 3000 1.75 lb/acre (=2.1 mg/mL) sprays, Mankocide 1.75 lb/acre foliar spray, hexanoic acid 0.5 mg/mL root drench weekly for 8 weeks
# [4] = Experiment 2, Kocide 3000 1.75 lb/acre (=2.1 mg/mL) sprays, Mankocide 1.75 lb/acre foliar spray, hexanoic acid 0.5 mg/mL root drench weekly for 8 weeks
structure (smiles),measurement,setting,value
"CCCCCC(=O)O [Hexanoic acid, hexanoic acid]",colony growth after treatment,"[1]; at 256 mg/L or higher concentrations, after 4 hours of treatment",no colonies grew
same,bactericidal effect over time,[1]; higher concentrations of hexanoic acid,bactericidal effects within an hour
same,"bacterial spot disease (preliminary AUDPC, FIG. 9) compared to the control (UTC)","X. perforans GEV-485; 512 mg/L applied only once as soil drench 1, 3, and 7 days prior to the bacterial inoculation",did not appear to significantly reduce the bacterial spot disease
same,"disease severity (AUDPC, FIG. 10) compared to the control (UTC)","X. perforans GEV-485; different treatment concentrations, application two days prior to the bacterial inoculation, two-week rating period",significantly (P<0.05) lower disease severity; also recorded: statistically significant (p<0.05) lower disease severity
same,effect on disease reduction compared to ManKocide at the label rate of 2.1 mg/ml,Xanthomonas perforans; [2],even better than ManKocide®
same,marketable tomato fruit yield compared to controls,Xanthomonas perforans; [2],greater than the untreated control (CK) and ManKocide® in one of the two independent trials
same,bacterial spot disease severity and AUDPC compared to the untreated control (CK),"Xanthomonas perforans; 0.5 mg/ml applied as root drench (50 ml/plant), Homestead, FL 2020-2021",significantly (P<0.05) reduced bacterial spot disease severity at the last rating and the overall disease progress
same,AUDPC1 area under the disease progress curve,Xanthomonas perforans; [3],95.93 c
same,BS1 bacterial disease severity,Xanthomonas perforans; [3],10.8 d %
same,YIELD1 fruit yield,Xanthomonas perforans; [3],8.83 a Kg/plant
same,AUDPC2 area under the disease progress curve,Xanthomonas perforans; [4],390.1 c
same,BS2 bacterial disease severity,Xanthomonas perforans; [4],41.3 c %
same,YIELD2 fruit yield,Xanthomonas perforans; [4],2.76 a Kg/plant
same,AUDPC,Xanthomonas perforans; Trial 1,95.9 c
same,BS last rating of bacterial spot severity,Xanthomonas perforans; Trial 1,10.8 c %
same,YIELD,Xanthomonas perforans; Trial 1,8.83 a kg/plant
same,AUDPC,Xanthomonas perforans; Trial 2,390.1 c
same,BS last rating of bacterial spot severity,Xanthomonas perforans; Trial 2,41.3 b %
same,YIELD,Xanthomonas perforans; Trial 2,2.76 a kg/plant
